From US8906430B2, “Use of hypericum perforatum extracts in the treatment of neuropathic pain” (Aboca S.p.A. Societa' Agricola, priority 2008, dated 2014)

Tests used:
[1] = test system: neuropathic pain; assay: Experimental models of neuropathic pain (summary statements); type: in vivo, rodents; conditions: for Ability to reduce neuropathic pain: isolated phloroglucinol derivatives
Procedure: The studies were conducted on rodents, which have always constituted a good animal model to reproduce the characteristics of human pain symptoms and predict possible remedies.

[2] = test system: oxaliplatin-induced hyperalgesia; assay: Oxaliplatin-induced hyperalgesia, rat paw pressure test; type: in vivo; conditions: oxaliplatin i.p., hypericin 0.11 mg/kg + CMC p.o., single administration
Procedure: A reduction in the pain threshold was induced by administering oxaliplatin 2.4 mg/kg for 5 consecutive days for a total of 3 weeks. By the end of the treatment period, the pain perception threshold of the rats was statistically lower than that of the controls (Ref. 23). Using the same method as in Example 1, the following results were obtained by administering hypericin at the doses indicated in Table 5.

[3] = test system: mononeuropathy induced by ligature of the sciatic nerve; assay: Right-side mononeuropathy induced by ligature of the sciatic nerve, rat paw pressure test; type: in vivo; design: unit not given beside the values; conditions: 0.11 mg/kg p.o.
Procedure: Neuropathic pain is characterised by the development of an altered perception of pain, which is manifested as continuous spontaneous pain and hyperalgesia. In this model, the rats were anaesthetised with chloral hydrate 400 mg/kg i.p. or sodium pentobarbital 40 mg/kg i.p. The sciatic nerve was then exposed at thigh level by retracting the femoral biceps. Proximally to the trifurcation of the sciatic nerve, approx. 7 mm of nerve was released from the membranes and 4 loose ligatures were tied round the nerve, approx. 1 mm apart. In another group of animals an identical incision was made, but without the nerve ligature (sham operation). Neuropathy developed in 14 days. The tests with the potentially analgesic substances were performed on the 14th and 21st days after the operation using the paw pressure test (ref. 24).
Using the same method as in Example 2, the following results were obtained by administering hypericin at the doses indicated in Table 6.

[4] = test system: monosodium iodoacetate-induced osteoarthritis pain; assay: Pain caused by monosodium iodoacetate-induced osteoarthritis of the knee, rat paw pressure test; type: in vivo; conditions: MIA, 0.11 mg/kg p.o.
Source text: The reduction in the pain threshold was induced by a single administration of monoiodoacetate (MIA) into the […] of the rat (Ref. 27). [table]

In the case of `CC(C)=CCC[C@]1(C)[C@@H](CC=C(C)C)C[C@@]2(CC=C(C)C)C(=O)[C@]1(C(=O)C(C)C)C(=O)C(CC=C(C)C)=C2O` [hyperforin], the “Ability to reduce neuropathic pain” value [1] is reported as “unable to reduce neuropathic pain”.

With `CCC(C)C(=O)[C@@]12C(=O)C(CC=C(C)C)=C(O)[C@@](CC=C(C)C)(C[C@H](CC=C(C)C)[C@@]1(C)CCC=C(C)C)C2=O` (stereo partly drawn) [adihyperforin] the “Ability to reduce neuropathic pain” value [1] was “unable to reduce neuropathic pain”.

`Cc1cc(O)c2c(=O)c3c(O)cc(O)c4c5c(O)cc(O)c6c(=O)c7c(O)cc(C)c8c1c2c(c34)c(c78)c65` [HYPERICIN, hypericin] was tested, and the “Pressure on rats' paws” value ([2]; 3rd week + 15 min) was 44.1 ± 2.8 g, the “Pressure on rats' paws” value ([2]; 3rd week + 30 min) was 55.0 ± 2.2 g and the “Pressure on rats' paws” value ([2]; 3rd week + 45 min) was 53.3 ± 2.6 g. For the same compound, the “Pressure on rats' paws” value ([2]; 3rd week + 60 min) was 31.3 ± 3.0 g, the “Pressure on rats' paws” value ([2]; 3rd week Pre-test) was 32.4 ± 2.0 g and the “Pressure on rats' paws” value ([2]; Pre-test before all treatments) was 63.2 ± 3.5 g. For the same compound, the “Rat paw pressure test (Paw)” value ([3]; paw L, 4 min after treatment) was 24.8 ± 3.9, the “Rat paw pressure test (Paw)” value ([3]; paw L, 15 min after treatment) was 23.8 ± 3.3 and the “Rat paw pressure test (Paw)” value ([3]; paw L, 30 min after treatment) was 22.7 ± 2.1. The “Rat paw pressure test (Paw)” value ([3]; paw L, 60 min after treatment) was 21.5 ± 3.0, the “Rat paw pressure test (Paw)” value ([3]; paw L, before treatment) was 21.6 ± 2.7 and the “Rat paw pressure test (Paw)” value ([3]; paw R, 4 min after treatment) was 41.6 ± 2.7. For the same compound, the “Rat paw pressure test (Paw)” value ([3]; paw R, 15 min after treatment) was 28.1 ± 1.2, the “Rat paw pressure test (Paw)” value ([3]; paw R, 30 min after treatment) was 43.7 ± 2.0 and the “Rat paw pressure test (Paw)” value ([3]; paw R, 60 min after treatment) was 25.9 ± 2.2. For the same compound, the “Rat paw pressure test (Paw)” value ([3]; paw R, before treatment) was 24.3 ± 4.6, the “Rat paw pressure test” value ([4]; 15 min after treatment) was 45.9 ± 2.7 and the “Rat paw pressure test” value ([4]; 30 min after treatment) was 49.7 ± 3.8. The “Rat paw pressure test” value ([4]; 45 min after treatment) was 42.8 ± 3.9, the “Rat paw pressure test” value ([4]; 60 min after treatment) was 31.7 ± 3.5 and the “Rat paw pressure test” value ([4]; Pre-test) was 23.4 ± 3.3. For the same compound, the “Activity on neuropathic pain” value ([1]; at a dose corresponding to its concentration in freeze-dried extracts) was “active”.
